PubChem BioAssay AID192 (DTP/NCI, 2004)
Where “and” joins values, the source holds several entries; their conditions need not be identical. Identical values can stand only once. Toxic doses and inconclusive results are not listed.

System: BDF1 mice, B16 melanoma ip, median survival T/C
Test: NCI In Vivo Anticancer Drug Screen. Data for tumor model B16 Melanoma (intraperitoneal) in B6D2F1 (BDF1) mice
Details: endpoint: median survival time, higher = longer survival
Method in brief: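 Vehicle-treated animals serve as the reference (C); treated animals (T) are scored for survival or tumor size after tumor transplantation.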

[1] = dose: 100.0 mg/kg/injection, schedule: Q01DX009 (ip), vehicle: Klucel (hydroxypropylcellulose) (HPC)
[2] = dose: 200.0 mg/kg/injection, schedule: Q01DX009 (ip), vehicle: Klucel (hydroxypropylcellulose) (HPC)
[3] = dose: 50.0 mg/kg/injection, schedule: Q04DX003 (ip), vehicle: Klucel (hydroxypropylcellulose) (HPC)
[4] = dose: 400.0 mg/kg/injection, schedule: Q01DX009 (ip), vehicle: Klucel (hydroxypropylcellulose) (HPC)
[5] = dose: 100.0 mg/kg/injection, schedule: Q04DX003 (ip), vehicle: saline with Tween-80
[6] = dose: 200.0 mg/kg/injection, schedule: Q04DX003 (ip), vehicle: saline with Tween-80
[7] = dose: 25.0 mg/kg/injection, schedule: Q01DX009 (ip), vehicle: saline with Tween-80
[8] = dose: 12.5 mg/kg/injection, schedule: Q01DX009 (ip), vehicle: saline with Tween-80
[9] = dose: 50.0 mg/kg/injection, schedule: Q01DX009 (ip), vehicle: saline with Tween-80

For `CC(C)n1c2c([n+](C)c1/C=C/c1ccccc1)C(=O)c1ccccc1C2=O`, which T/C (dose: 0.13 mg/kg/injection, schedule: Q01DX009 (ip), vehicle: saline) is on record?
The T/C was 94 % of control.

What about the T/C (dose: 0.25 mg/kg/injection, schedule: Q01DX009 (ip), vehicle: saline) of the same compound?
The T/C was 96 % of control.

And the T/C (dose: 0.5 mg/kg/injection, schedule: Q01DX009 (ip), vehicle: saline)?
Its T/C is 100 % of control.

What about the T/C (dose: 1.0 mg/kg/injection, schedule: Q01DX009 (ip), vehicle: saline with Tween-80) of the same compound?
The T/C was 94 % of control.

And the T/C (dose: 1.0 mg/kg/injection, schedule: Q01DX009 (ip), vehicle: saline)?
The T/C was 102 % of control.

What about the T/C (dose: 2.0 mg/kg/injection, schedule: Q01DX009 (ip), vehicle: saline) of the same compound?
The T/C was 90 % of control.

What about the T/C (dose: 4.0 mg/kg/injection, schedule: Q01DX009 (ip), vehicle: saline) of the same compound?
Its T/C is 97 % of control.

What does the source list for `CN(C)CCCN=Cc1ccccc1O.CN(C)CCCN=Cc1ccccc1O.[Ni+2]`?
T/C (dose: 6.25 mg/kg/injection, schedule: Q04DX003 (ip), vehicle: saline with Tween-80): 92 % of control; T/C (dose: 25.0 mg/kg/injection, schedule: Q04DX003 (ip), vehicle: saline with Tween-80): 86 % of control

`CCOc1ccc(NC(=O)C2CCC(C)(C(=O)O)C2(C)C)cc1` (centres undefined) was tested. Which T/C (dose: 66.0 mg/kg/injection, schedule: Q01DX009 (ip), vehicle: saline with Tween-80) did it give?
The T/C was 88 % of control.

What about the T/C (dose: 100.0 mg/kg/injection, schedule: Q01DX009 (ip), vehicle: saline with Tween-80) of the same compound?
The T/C was 100 % of control.

What about the T/C (dose: 150.0 mg/kg/injection, schedule: Q01DX009 (ip), vehicle: saline with Tween-80) of the same compound?
Its T/C is 113 % of control.

How did the T/C [1] turn out when `CC(=O)CC(=O)Nc1ccc(C(=O)O)c(O)c1` was run?
The T/C was 86 % of control.

What about the T/C [2] of the same compound?
The T/C was 89 % of control.

How did the T/C (dose: 12.5 mg/kg/injection, schedule: Q04DX003 (ip), vehicle: Klucel (hydroxypropylcellulose) (HPC)) turn out when `C=CCOCC(O)CN(CCC(C)C)CCC(C)C` (centres undefined) was run?
Its T/C is 91 % of control.

And the T/C (dose: 25.0 mg/kg/injection, schedule: Q04DX003 (ip), vehicle: Klucel (hydroxypropylcellulose) (HPC))?
The T/C was 91 % of control.

What about the T/C [3] of the same compound?
Its T/C is 95 % of control.

Which results are given for `C=C(C)[C@@H]1CC[C@]2(CO)CC[C@]3(C)[C@H](CC[C@@H]4[C@@]5(C)CC[C@H](O)C(C)(C)[C@@H]5CC[C@]43C)[C@@H]12`?
T/C [1]: 99 % of control; T/C [2]: 97 % of control; T/C [4]: 95 % of control

Which T/C [5] does the source give for `OC(Cc1cnc2ccccc2n1)(C(F)(F)F)C(F)(F)F` here?
The T/C was 105 % of control.

And the T/C [6]?
Its T/C is 105 % of control.

And the T/C (dose: 400.0 mg/kg/injection, schedule: Q04DX003 (ip), vehicle: saline with Tween-80)?
Its T/C is 102 % of control.

Which T/C [3] does the source give for `CO/C(=C\c1ccc(OC)cc1)C(=O)O` here?
Its T/C is 94 % of control.

And the T/C (dose: 100.0 mg/kg/injection, schedule: Q04DX003 (ip), vehicle: Klucel (hydroxypropylcellulose) (HPC))?
The T/C was 100 % of control.

What about the T/C (dose: 200.0 mg/kg/injection, schedule: Q04DX003 (ip), vehicle: Klucel (hydroxypropylcellulose) (HPC)) of the same compound?
The T/C was 111 % of control.

`CCCCC#CCOCC(O)CCl` (centres undefined) was tested. Which T/C (dose: 3.13 mg/kg/injection, schedule: Q01DX009 (ip), vehicle: saline with Tween-80) did it give?
The T/C was 118 % of control.

And the T/C (dose: 6.25 mg/kg/injection, schedule: Q01DX009 (ip), vehicle: saline with Tween-80)?
The T/C was 114 % of control.

What about the T/C [7] of the same compound?
Its T/C is 101 % of control.

For `CC(=O)CC(C)=O.CC(=O)CC(C)=O.O=N[O-].O=N[O-].[Co]`, which T/C [8] is on record?
The T/C was 96 % of control.

What about the T/C [7] of the same compound?
The T/C was 103 % of control.

What about the T/C [9] of the same compound?
The T/C was 91 % of control.

What does the source list for `Cc1cccc(C)c1NS(=O)(=O)c1ccc(Cl)cc1`?
T/C (dose: 25.0 mg/kg/injection, schedule: Q01DX009 (ip), vehicle: Klucel (hydroxypropylcellulose) (HPC)): 99 % of control; T/C (dose: 50.0 mg/kg/injection, schedule: Q01DX009 (ip), vehicle: Klucel (hydroxypropylcellulose) (HPC)): 97 % of control; T/C [1]: 99 % of control and 104 % of control; T/C [4]: 116 % of control

Which T/C [1] does the source give for `Cc1cccc(C)c1NC(=O)C(Cl)c1ccccc1` (centres undefined) here?
Its T/C is 103 % of control.

And the T/C [2]?
The T/C was 93 % of control.

What about the T/C [4] of the same compound?
The T/C was 100 % of control.

With `CC[N+](CC)(CC)CCC[n+]1ccc(/C=N\O)cc1` as the compound, how does the T/C (dose: 25.0 mg/kg/injection, schedule: Q01DX009 (ip), vehicle: saline) read?
The T/C was 111 % of control.

What about the T/C (dose: 50.0 mg/kg/injection, schedule: Q01DX009 (ip), vehicle: saline) of the same compound?
The T/C was 111 % of control.

What about the T/C (dose: 100.0 mg/kg/injection, schedule: Q01DX009 (ip), vehicle: saline) of the same compound?
The T/C was 111 % of control.

`CC(=O)O[C@H]1C(=O)[C@@]2(C)[C@H]([C@H](OC(=O)c3ccccc3)[C@]3(O)C[C@H](OC(=O)[C@H](O)[C@@H](NC(=O)c4ccccc4)c4ccccc4)C(C)=C1C3(C)C)[C@]1(OC(C)=O)CO[C@@H]1C[C@@H]2O` was tested. Which T/C (dose: 0.66 mg/kg/injection, schedule: Q01DX005 (iv), vehicle: other) did it give?
The T/C was 100 % of control.

And the T/C (dose: 0.66 mg/kg/injection, schedule: Q08HX018 (ip), vehicle: Klucel (hydroxypropylcellulose) (HPC))?
Its T/C is 160 % of control.

And the T/C (dose: 0.66 mg/kg/injection, schedule: Q08HX018 (ip), vehicle: other)?
Its T/C is 110 % of control.

What about the T/C (dose: 0.98 mg/kg/injection, schedule: Q08HX018 (ip), vehicle: Klucel (hydroxypropylcellulose) (HPC)) of the same compound?
Its T/C is 183 % of control.

And the T/C (dose: 1.25 mg/kg/injection, schedule: Q01DX009 (ip), vehicle: Klucel (hydroxypropylcellulose) (HPC))?
The T/C was 153 % of control and 181 % of control.

And the T/C (dose: 1.25 mg/kg/injection, schedule: Q01DX009 (oral), vehicle: Klucel (hydroxypropylcellulose) (HPC))?
The T/C was 91 % of control.

And the T/C (dose: 1.32 mg/kg/injection, schedule: Q01DX009 (ip), vehicle: Klucel (hydroxypropylcellulose) (HPC))?
Its T/C is 164 % of control.

And the T/C (dose: 1.48 mg/kg/injection, schedule: Q01DX005 (iv), vehicle: other)?
Its T/C is 105 % of control.

And the T/C (dose: 1.48 mg/kg/injection, schedule: Q08HX018 (ip), vehicle: Klucel (hydroxypropylcellulose) (HPC))?
Its T/C is 207 % of control.

What about the T/C (dose: 1.48 mg/kg/injection, schedule: Q08HX018 (ip), vehicle: other) of the same compound?
The T/C was 174 % of control.

What about the T/C (dose: 1.98 mg/kg/injection, schedule: Q01DX009 (ip), vehicle: Klucel (hydroxypropylcellulose) (HPC)) of the same compound?
Its T/C is 183 % of control and 200 % of control.

And the T/C (dose: 2.22 mg/kg/injection, schedule: Q08HX018 (ip), vehicle: Klucel (hydroxypropylcellulose) (HPC))?
The T/C was 187 % of control.

And the T/C (dose: 2.22 mg/kg/injection, schedule: Q08HX018 (ip), vehicle: other)?
The T/C was 193 % of control.

And the T/C (dose: 2.5 mg/kg/injection, schedule: Q01DX009 (ip), vehicle: other)?
Its T/C is 106 % of control.

What about the T/C (dose: 2.5 mg/kg/injection, schedule: Q01DX009 (oral), vehicle: Klucel (hydroxypropylcellulose) (HPC)) of the same compound?
Its T/C is 116 % of control.

What about the T/C (dose: 2.96 mg/kg/injection, schedule: Q01DX009 (ip), vehicle: Klucel (hydroxypropylcellulose) (HPC)) of the same compound?
Its T/C is 206 % of control and 217 % of control.

And the T/C (dose: 3.33 mg/kg/injection, schedule: Q01DX005 (iv), vehicle: other)?
Its T/C is 95 % of control.

And the T/C (dose: 3.33 mg/kg/injection, schedule: Q08HX018 (ip), vehicle: Klucel (hydroxypropylcellulose) (HPC))?
Its T/C is 198 % of control.

And the T/C (dose: 4.44 mg/kg/injection, schedule: Q01DX009 (ip), vehicle: Klucel (hydroxypropylcellulose) (HPC))?
The T/C was 194 % of control and 231 % of control.

What about the T/C (dose: 5.0 mg/kg/injection, schedule: Q08HX018 (ip), vehicle: Klucel (hydroxypropylcellulose) (HPC)) of the same compound?
The T/C was 240 % of control.

And the T/C (dose: 5.0 mg/kg/injection, schedule: Q08HX018 (ip), vehicle: other)?
The T/C was 150 % of control and 208 % of control.

What about the T/C (dose: 7.5 mg/kg/injection, schedule: Q01DX005 (iv), vehicle: other) of the same compound?
Its T/C is 100 % of control.

What about the T/C (dose: 7.5 mg/kg/injection, schedule: Q08HX018 (ip), vehicle: Klucel (hydroxypropylcellulose) (HPC)) of the same compound?
Its T/C is 122 % of control.

And the T/C (dose: 11.2 mg/kg/injection, schedule: Q01DX005 (iv), vehicle: other)?
The T/C was 108 % of control.

What about the T/C (dose: 20.0 mg/kg/injection, schedule: Q01DX009 (oral), vehicle: Klucel (hydroxypropylcellulose) (HPC)) of the same compound?
The T/C was 108 % of control.

What about the T/C (dose: 40.0 mg/kg/injection, schedule: Q01DX009 (oral), vehicle: Klucel (hydroxypropylcellulose) (HPC)) of the same compound?
Its T/C is 106 % of control.

Which results are given for `O=C1NC(=O)C(=Cc2cc3c(cc2Br)OCO3)C(=O)N1`?
T/C [8]: 97 % of control; T/C [7]: 94 % of control; T/C [9]: 94 % of control

For `Oc1cc2c3c(c1)c1cc4c(cc1c[n+]3CC2)OCO4`, which T/C (dose: 1.56 mg/kg/injection, schedule: Q01DX009 (ip), vehicle: distilled water + Tween-80) is on record?
The T/C was 117 % of control.

What about the T/C (dose: 3.12 mg/kg/injection, schedule: Q01DX009 (ip), vehicle: water) of the same compound?
Its T/C is 115 % of control.

And the T/C (dose: 3.13 mg/kg/injection, schedule: Q01DX009 (ip), vehicle: distilled water + Tween-80)?
Its T/C is 113 % of control.

What about the T/C (dose: 6.25 mg/kg/injection, schedule: Q01DX009 (ip), vehicle: water) of the same compound?
The T/C was 118 % of control.

And the T/C (dose: 25.0 mg/kg/injection, schedule: Q01DX009 (ip), vehicle: distilled water + Tween-80)?
Its T/C is 119 % of control.

What about the T/C (dose: 50.0 mg/kg/injection, schedule: Q01DX009 (ip), vehicle: water) of the same compound?
The T/C was 124 % of control.

`CCOC(=O)NC1CCC1NC(=O)OCC` (centres undefined) was tested. Which T/C [5] did it give?
The T/C was 92 % of control.

And the T/C [6]?
Its T/C is 95 % of control.
